Test results as given in US8008311B2, “Methods and compostions utilizing quinazolinones” (Cytokinetics, Inc., priority 2003, dated 2011).
“And” between values parts separate entries of the source, which are not always exact repeats. Equal values may be shown once. Read-outs that look alike come from different tables or passages of the source. Blank lines part the entries; values can stand above or below the molecule they belong to.

Legend:
KSP motor domain = biological target: T1, KSP motor domain (Homo sapiens, UniProt P52732); experiment: KSP ATPase assay (IC50 / Ki); assay type: biochemical; conditions: for Ki: synthesized as single enantiomer
T1 construct: 100 nM KSP motor domain, 50 μg/ml microtubules
T1 sequence (P52732 18-359 limits assumed): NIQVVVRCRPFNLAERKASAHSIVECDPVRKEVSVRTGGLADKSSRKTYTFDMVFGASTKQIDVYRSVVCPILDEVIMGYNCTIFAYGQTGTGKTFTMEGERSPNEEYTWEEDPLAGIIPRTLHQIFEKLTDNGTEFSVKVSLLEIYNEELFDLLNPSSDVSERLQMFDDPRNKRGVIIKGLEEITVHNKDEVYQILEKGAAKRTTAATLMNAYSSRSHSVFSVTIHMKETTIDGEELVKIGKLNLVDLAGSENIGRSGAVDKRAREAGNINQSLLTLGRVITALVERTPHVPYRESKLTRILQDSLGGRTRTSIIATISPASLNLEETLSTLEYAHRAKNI
Description: One measure of inhibition is IC50, defined as the concentration of the composition at which the activity of KSP is decreased by fifty percent. Preferred compositions have IC50's of less than about 1 mM, with preferred embodiments having IC50's of less than about 100 μM, with more preferred embodiments having IC50's of less than about 10 μM, with particularly preferred embodiments having IC50's of less than about 1 μM, and especially preferred embodiments having IC50's of less than about 100 nM, and with the most preferred embodiments having IC50's of less than about 10 nM. Measurement of IC50 is done using an ATPase assay.
The Ki for a compound is determined from the IC50 based on three assumptions. First, only one compound molecule binds to the enzyme and there is no cooperativity. […] Third, the enzymatic rate of the enzyme-inhibitor complex is zero. The rate (i.e., compound concentration) data are fitted to the equation: […]
Where V is the observed rate, Vmax is the rate of the free enzyme, I0 is the inhibitor concentration, E0 is the enzyme concentration, and Kd is the dissociation constant of the enzyme-inhibitor complex.
Measurement of a composition's IC50 for KSP activity uses an ATPase assay. The following solutions are used: Solution 1 consists of 3 mM phosphoenolpyruvate potassium salt (Sigma P-7127), 2 mM ATP (Sigma A-3377), 1 mM IDTT (Sigma D-9779), 5 μM paclitaxel (Sigma T-7402), 10 ppm antifoam 289 (Sigma A-8436), 25 mM Pipes/KOH pH 6.8 (Sigma P6757), 2 mM MgC12 (VWR JT400301), and 1 mM EGTA (Sigma E3889). Solution 2 consists of 1 mM NADH (Sigma N8129), 0.2 mg/ml BSA (Sigma A7906), pyruvate kinase 7 U/ml, L-lactate dehydrogenase 10 U/ml (Sigma P0294), 100 nM KSP motor domain, 50 μg/ml microtubules, 1 mM DTT (Sigma D9779), 5 μM paclitaxel (Sigma T-7402), 10 ppm antifoam 289 (Sigma A-8436), 25 mM Pipes/KOH pH 6.8 (Sigma P6757), 2 mM MgC12 (VWR JT4003-01), and 1 mM EGTA (Sigma E3889). Serial dilutions (8-12 two-fold dilutions) of the composition are made in a 96-well microtiter plate (Corning Costar 3695) using Solution 1. Following serial dilution each well has 50 μl of Solution 1. The reaction is started by adding 50 μl of solution 2 to each well. This may be done with a multichannel pipettor either manually or with automated liquid handling devices. The microtiter plate is then transferred to a microplate absorbance reader and multiple absorbance readings at 340 nm are taken for each well in a kinetic mode. The observed rate of change, which is proportional to the ATPase rate, is then plotted as a function of the compound concentration. For a standard IC50 determination the data acquired is fit by the following four parameter equation using a nonlinear fitting program (e.g., Grafit 4): […]
Where y is the observed rate and x the compound concentration.

A549 cells = conditions: cited from earlier work
SKOV3 tumor xenograft [1] = experiment: SKOV3 tumor xenograft in nude mice; assay type: in vivo
SKOV3 tumor xenograft [2] = experiment: SKOV3 tumor xenograft in nude mice; assay type: in vivo; conditions: for Mice with Partial Tumor Shrinkage / Mortalities: 8 mice at start
Description: Female nude mice weighing approximately 20 g were implanted s.c. by trocar with fragments of human tumor carcinomas harvested from s.c. growing tumors in nude mice host. When the tumors were approximately 77 mg in size, the animals were pair matched into treatment and control groups. Each group contained 8 tumored mice, each of which was ear-tagged and followed individually throughout the experiment. Initial doses (10 mL/kg of a 66 mM Citrate buffer, pH 5.0/0.9% Saline/10% Tween 80 formulation of each test compound having a maximum concentration of 5 mg/mL) were given on Day 1 following pair matching, dosing at the levels and schedules indicated.
Mice were weighed twice weekly, and tumor measurements were taken by calipers twice weekly, starting on Day 1. These tumor measurements were converted to mg tumor weight by a well-known formula, W^2×L/2. The experiment was terminated when the control group tumor size reached an average of 1 gram. Upon termination, the mice were weighted, sacrificed and their tumors excised. Tumors were weighted and the mean treated tumor weight per group was calculated. In this model, the change in mean treated tumor weight/the change in mean control tumor weight×100% (ΔT/ΔC) was subtracted from 100% to give the tumor growth inhibition (TGI) for each group.

[3] = system: Skov-3 cells (human ovarian cancer); experiment: FACS analysis of cell cycle stage by DNA content; assay type: cell-based; conditions: 24 hours; 10 nM paclitaxel, 400 nM quinazolinone 1, 200 nM quinazolinone 2
Description: FACS analysis to determine cell cycle stage by measuring DNA content was performed as follows. Skov-3 cells (human ovarian cancer) were split 1:10 for plating in 10 cm dishes and grown to subconfluence with RPMI 1640 medium containing 5% fetal bovine serum (FBS). The cells were then treated with either 10 nM paclitaxel, 400 nM quinazolinone 1, 200 nM quinazolinone 2, or 0.25% DMSO (vehicle for compounds) for 24 hours. Cells were then rinsed off the plates with PBS containing 5 mM EDTA, pelleted, washed once in PBS containing 1% FCS, and then fixed overnight in 85% ethanol at 4° C. Before analysis, the cells were pelleted, washed once, and stained in a solution of 10 μg propidium iodide and 250 μg of ribonuclease (RNAse) A per milliliter at 37° C. for half an hour. Flow cytometry analysis was performed on a Becton-Dickinson FACScan, and data from 10,000 cells per sample was analyzed with Modfit software.

[4] = R enantiomer, read-out: Ki (μM) R enantiomer
[5] = S enantiomer, read-out: Ki (μM) S enantiomer
[6] = enantiomer 1 from chiral chromatography, read-out: IC50 (μM) Enantiomer 1
[7] = enantiomer 2 from chiral chromatography, read-out: IC50 (μM) Enantiomer 2
[8] = racemate, read-out: IC50 (μM) Racemate
[9] = 80 mg/kg every 3 days × 4, i.v.
[10] = 50 mg/kg every 3 days × 4, i.v.
[11] = 20 mg/kg daily × 5, i.p., Tables A-D

Ki (KSP motor domain; [4]): < 0.1 µM
Ki (KSP motor domain; [5]): 2 µM
Structure (SMILES): CC(c1nc2ccccc2c(=O)n1Cc1ccccc1)N(CCN)C(=O)c1ccc(Br)cc1 (centres unmarked)

Ki (KSP motor domain; [4]): < 0.05 µM
Ki (KSP motor domain; [5]): > 0.5 µM
Structure (SMILES): CCC(c1nc2cc(Cl)ccc2c(=O)n1Cc1ccccc1)N(CCN)C(=O)c1ccc(Br)cc1 (centres unmarked)

IC50 (KSP motor domain; R isomer, read-out: R Isomer IC50): < 0.05 µM
IC50 (KSP motor domain; S isomer, read-out: S Isomer IC50): > 0.5 µM
IC50 (KSP motor domain; racemic, read-out: Racemic I C50): < 0.05 µM
Structure (SMILES): CCC(c1nc2cc(Cl)ccc2c(=O)n1Cc1ccccc1)N(CCCN)C(=O)c1ccc(C)cc1 (racemic)

IC50 (KSP motor domain; [6]): 0.28 µM
IC50 (KSP motor domain; [7]): 0.03 µM
IC50 (KSP motor domain; [8]): 0.06 µM
Structure (SMILES): CCC(c1nc2ccccc2c(=O)n1Cc1ccccc1)N(CCN(C)C)C(=O)c1ccc(Br)cc1 (single isomer, unassigned)

IC50 (KSP motor domain; [6]): > 40 µM
IC50 (KSP motor domain; [7]): 6.6 µM
IC50 (KSP motor domain; [8]): 12.7 µM
Structure (SMILES): CCC(c1nc2ccccc2c(=O)n1Cc1ccccc1)N(CCN(C)C)C(=O)c1cccc2ccccc12 (single isomer, unassigned)

IC50 (KSP motor domain; [6]): > 40 µM
IC50 (KSP motor domain; [7]): 1.3 µM
IC50 (KSP motor domain; [8]): 2.6 µM
Structure (SMILES): CC(c1nc2ccccc2c(=O)n1Cc1ccccc1)N(CCN(C)C)C(=O)c1ccc(Br)cc1 (single isomer, unassigned)

Structure (SMILES): O=c1[nH]cc(F)c(=O)[nH]1 [5-fluorouracil]
GI50 (A549 cells): 1000 nM

Structure (SMILES): CCC(c1nc2cc(Cl)ccc2c(=O)n1Cc1ccccc1)N(CCCN)Cc1ccc(Br)cc1 (centres unmarked) [Compound 1]
Final Tumor Weight (Mean ± SEM) (SKOV3 tumor xenograft [1]; [9]): 554.3 ± 76.8 mg
Maximum Weight Loss (SKOV3 tumor xenograft [2]; [9]): None
Tumor Growth Inhibition (SKOV3 tumor xenograft [2]; [9]): 41.5%
Mice with Partial Tumor Shrinkage (SKOV3 tumor xenograft [2]; [9]): 0
Mortalities (SKOV3 tumor xenograft [2]; [9]): 1

Structure (SMILES): CCC(c1nc2cc(F)ccc2c(=O)n1Cc1ccccc1)N(CCCN)C(=O)c1ccc(C)cc1 (centres unmarked) [Compound 2]
Final Tumor Weight (Mean ± SEM) (SKOV3 tumor xenograft [2]; [10]): 340.8 ± 93.0 mg
Maximum Weight Loss (SKOV3 tumor xenograft [2]; [10]): None
Tumor Growth Inhibition (SKOV3 tumor xenograft [2]; [10]): 81.5%
Mice with Partial Tumor Shrinkage (SKOV3 tumor xenograft [2]; [10]): 0
Mortalities (SKOV3 tumor xenograft [2]; [10]): 0

Structure (SMILES): CCC(c1nc2cc(Cl)ccc2c(=O)n1Cc1ccccc1)N(CC1CNC1)C(=O)c1ccc(C)cc1 (centres unmarked) [Compound 3]
Final Tumor Weight (Mean ± SEM) (SKOV3 tumor xenograft [1]; 60 mg/kg daily × 5, i.v.): 806.1 ± 163.8 mg
Maximum Weight Loss (SKOV3 tumor xenograft [2]; 60 mg/kg daily × 5, i.v.): 2.76%
Tumor Growth Inhibition (SKOV3 tumor xenograft [2]; 60 mg/kg daily × 5, i.v.): 48.3%
Mice with Partial Tumor Shrinkage (SKOV3 tumor xenograft [2]; 60 mg/kg daily × 5, i.v.): 0
Mortalities (SKOV3 tumor xenograft [2]; 60 mg/kg daily × 5, i.v.): 1

Structure (SMILES): CCC(c1nc2cc(Cl)ccc2c(=O)n1Cc1ccccc1)N(CCN)Cc1ccc(C)cc1 (centres unmarked) [Compound 4]
Final Tumor Weight (Mean ± SEM) (SKOV3 tumor xenograft [2]; 4 mg/kg weekly × 3, i.v.): 726.9 ± 147.2 mg
Maximum Weight Loss (SKOV3 tumor xenograft [2]; 4 mg/kg weekly × 3, i.v.): 0.02%
Tumor Growth Inhibition (SKOV3 tumor xenograft [2]; 4 mg/kg weekly × 3, i.v.): 40.1%
Mice with Partial Tumor Shrinkage (SKOV3 tumor xenograft [2]; 4 mg/kg weekly × 3, i.v.): 0
Mortalities (SKOV3 tumor xenograft [2]; 4 mg/kg weekly × 3, i.v.): 1

Structure (SMILES): CCC(c1nc2cc(Cl)ccc2c(=O)n1Cc1ccccc1)N(CCCN(C)C)C(=O)c1ccc(Br)cc1 (centres unmarked) [Compound 5]
Final Tumor Weight (Mean ± SEM) (SKOV3 tumor xenograft [2]; 25 mg/kg daily × 5, i.v.): 405.6 ± 124.8 mg
Maximum Weight Loss (SKOV3 tumor xenograft [2]; 25 mg/kg daily × 5, i.v.): None
Mean % Tumor Shrinkage (SKOV3 tumor xenograft [2]; 25 mg/kg daily × 5, i.v.): 56.3%
Tumor Growth Inhibition (SKOV3 tumor xenograft [2]; 25 mg/kg daily × 5, i.v.): 71.0%
Mice with Partial Tumor Shrinkage (SKOV3 tumor xenograft [2]; 25 mg/kg daily × 5, i.v.): 1
Mortalities (SKOV3 tumor xenograft [2]; 25 mg/kg daily × 5, i.v.): 0

Structure (SMILES): CC(=O)O[C@H]1C(=O)[C@@]2(C)[C@H]([C@H](OC(=O)c3ccccc3)[C@]3(O)C[C@H](OC(=O)[C@H](O)[C@@H](NC(=O)c4ccccc4)c4ccccc4)C(C)=C1C3(C)C)[C@]1(OC(C)=O)CO[C@@H]1C[C@@H]2O [Taxol, paclitaxel, reference compound]
shift of cell cycle stage (DNA content) [3]: caused a shift in the population of cells from a G0/G1 cell cycle stage (2n DNA content) to a G2/M cell cycle stage (4n DNA content)
GI50 (A549 cells): 4 nM
Maximum Weight Loss (SKOV3 tumor xenograft [2]; [11]): 16.5% and 7.49% and 12.26% and 8.77%
Mean % Tumor Shrinkage (SKOV3 tumor xenograft [2]; [11]): 27.9% and 43.5% and 44.4%
Tumor Growth Inhibition (SKOV3 tumor xenograft [2]; 20 mg/kg daily × 5, i.p., separate experiments Tables A-D): 91.7% and 99.7% and 87.1% and 73.0%

Structure (SMILES): COc1cccc2c1C(=O)c1c(O)c3c(c(O)c1C2=O)C[C@@](O)(C(=O)CO)C[C@@H]3O[C@H]1C[C@H](N)[C@H](O)[C@H](C)O1 [doxorubicin]
GI50 (A549 cells): 63 nM

Structure (SMILES): NC(=O)NO [hydroxyurea]
GI50 (A549 cells): 500000 nM
